According to patent publication EP0333676A2, “Use of 1-(2-ethoxy-2-(3'-pyridyl)ethyl)-4-(2'methoxy-phenyl)piperazine, for the preparation of pharmaceutical compositions useful for the treatment of lower urinary tract disfunctions and benign prostatic hypertrophy” (MALESCI ISTITUTO FARMACOBIOLOGICO S.p.A., priority 1988, dated 1989):

Assays:
[1] = test system: alpha₁-adrenoceptor; assay: Antagonism of the phenylephrine concentration-response curve in isolated rat proximal urethra; settings: versus phenylephrine, compound at 1 nM, rightward parallel displacement of the curve
Experimental: (§1) In the "in vitro" studies, male albino rats, Wistar Nossan strain, weighing 300-350 g were used. Animals were sacrificed by cervical dislocation and the proximal urethra was quickly excised, cleaned of connective tissues and then suspended in an organ bath and tied to an isometric force transducer, under resting tension of 0.5 g. Experiments were performed at 37°C and the bathing medium (gassed with 95% O₂ and 5% CO₂) had the following composition (mM): NaCl 119, KCl 4.7, MgSO₄ 1.5, […], CaCl₂ 2.5, NaHCO₃ 25 and glucose 11. Experiments were carried out after 60 min equilibration period.
(§2) In a first group of experiments a cumulative concentration response curve to alpha₁-adrenoceptor selective agonist, phenylephrine, was obtained in control conditions or in presence of the compound of invention (1 nM). The compound of invention (1 nM) produced a rightward parallel displacement of concentration response curve to phenylephrine with a pA₂ of 9.18±0.12. In another set of experiments urethral contractions were obtained by means of field stimulation (20 Hz, 0.5 msec, maximal voltage; trains of 5 sec every 4 min). These contractions (obtained in a medium additionated with atropine 1 uM) were TTX-sensitive and probably due to stimulation of adrenergic fibers. […]

[2] = test system: isolated urethra of rat; assay: Inhibition of field stimulation-induced contractions of isolated rat proximal urethra; settings: inhibition of urethral contractions by field stimulation (20 Hz, 0.5 msec, maximal voltage), atropine 1 uM in medium, range 1 pM-1 nM, printed interval (0.09-0.18), read-out: EC₅₀
Experimental: as §1, §2

[3] = test system: rat chronically treated with testosterone; assay: Transvesical cystometrogram in rats chronically treated with testosterone (urethral outflow obstruction); assay type: in vivo; settings: 0.1-3 ug/Kg i.v.; rats treated for 2 weeks with testosterone propionate 3 mg/Kg s.c.; urethane anaesthesia
Experimental: (§3) In the "vivo" studies two experimental models characterized by urethral outflow obstruction were used: a) rat chronically treated with testosterone and b) rat acutely treated with hexamethonium.
(§4) Male albino rats, Wistar strain, weighting 300-350 g, were treated for 2 weeks with testosterone propionate at the dose of 3 mg/Kg s.c.. Afterwards animals were anaesthetized with urethane 40% s.c. (0.3 ml/hg) and then transvescical cystometrogram were perfused according to the method of Maggi et al. (J. Pharmacol. Meth. 15, 157; 1986). Testosterone-treated animals were characterized by the appearance of frequent, scarcely effective, micturition complexes and by a very high residual volume (about double than controls). […] It is important to underline that in urethane anaesthetized normotensive rats, i.v. administration of compound of invention exerts an hypotensive effect in the range 3-100 ug/kg.

[4] = test system: urethane anaesthetized normotensive rats; assay: Hypotensive effect in urethane-anaesthetized normotensive rats; assay type: in vivo, rat; settings: i.v. administration
Experimental: as §4

[5] = test system: rat acutely treated with hexamethonium; assay: Transvesical cystometrogram in rats acutely treated with hexamethonium (urethral outflow obstruction); assay type: in vivo; settings: pretreatment at doses lower than 3 ug/Kg i.v.
Experimental: as §3
Urethane-anaesthetized male albino rats, Wistar strain weighing 300-350 g, were used.
Administration of hexamethonium (40 mg/Kg i.v.) 5 minutes before start of transvescical cystometrogram produced in about 75% of animals an overflow incontinence coupled to high values of intravescical pressure.

EC50 [2]: 0.13 nM
dose range exerting an hypotensive effect [4]: 3 to 100 µg/kg
SMILES: CCOC(CN1CCN(c2ccccc2OC)CC1)c1cccnc1 (racemic) [compound of invention, 1-(2-ethoxy-2-(3′-pyridyl)ethyl)-4-(2′-methoxy-phenyl)piperazine]
pA₂ [1]: 9.18±0.12
voiding efficiency [3]: clear, objective and prompt beneficial action on the voiding efficiency
intravescical pressure ([5]; hexamethonium 40 mg/Kg i.v.): lower intravescical pressure values
overflow incontinence ([5]; hexamethonium 40 mg/Kg i.v. (about 75% of animals incontinent without pretreatment)): never produced overflow incontinence
